“And” between values parts separate entries of the source, which are not always exact repeats. Equal values may be shown once. Read-outs that look alike come from different tables or passages of the source.
Key:
[1] = molecular target: striatal dopamine transporters (DAT) (Mus musculus, UniProt Q61327); assay: In vivo DAT occupancy: inhibition of [^125I]RTI-121 specific binding in striatum; design: species or system CD-1 mice; details: mouse, iv, read-out: Inhibition of specific [^125I]RTI-121 binding
striatal dopamine transporters (DAT), sequence (Q61327 whole entry): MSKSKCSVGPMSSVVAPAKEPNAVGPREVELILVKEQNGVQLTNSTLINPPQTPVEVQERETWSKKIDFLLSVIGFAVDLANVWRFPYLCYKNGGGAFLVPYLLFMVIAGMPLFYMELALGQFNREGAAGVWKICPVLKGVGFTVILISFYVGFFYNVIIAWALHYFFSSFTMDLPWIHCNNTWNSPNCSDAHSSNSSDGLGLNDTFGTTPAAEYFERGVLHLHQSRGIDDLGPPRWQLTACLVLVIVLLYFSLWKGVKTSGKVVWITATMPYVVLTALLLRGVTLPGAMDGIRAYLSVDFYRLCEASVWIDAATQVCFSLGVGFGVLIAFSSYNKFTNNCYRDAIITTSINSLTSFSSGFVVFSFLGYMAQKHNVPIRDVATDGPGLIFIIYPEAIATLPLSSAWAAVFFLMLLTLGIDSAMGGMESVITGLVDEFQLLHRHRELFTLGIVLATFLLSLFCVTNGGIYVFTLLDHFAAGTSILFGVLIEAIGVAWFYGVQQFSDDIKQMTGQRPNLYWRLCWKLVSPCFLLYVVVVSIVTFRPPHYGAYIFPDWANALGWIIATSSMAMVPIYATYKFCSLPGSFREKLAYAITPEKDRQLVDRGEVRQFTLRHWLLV

[2] = molecular target: T1, σ1 receptors (Mus musculus, UniProt O55242); assay: In vitro σ1 receptor binding, [^3H]; design: species or system CD-1 mouse
T1 sequence (O55242 whole entry): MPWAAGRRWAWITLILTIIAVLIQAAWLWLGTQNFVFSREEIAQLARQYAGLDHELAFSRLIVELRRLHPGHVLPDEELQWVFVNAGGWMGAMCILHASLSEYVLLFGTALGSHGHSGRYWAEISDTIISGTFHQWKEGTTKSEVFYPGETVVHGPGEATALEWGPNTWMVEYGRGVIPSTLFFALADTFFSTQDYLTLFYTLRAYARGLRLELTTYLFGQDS

[3] = molecular target: T2, σ2 receptors (Mus musculus, UniProt Q8VD00); assay: In vitro σ2 receptor binding, [^3H]DTG/; design: species or system CD-1 mouse
T2 sequence (Q8VD00 1-176): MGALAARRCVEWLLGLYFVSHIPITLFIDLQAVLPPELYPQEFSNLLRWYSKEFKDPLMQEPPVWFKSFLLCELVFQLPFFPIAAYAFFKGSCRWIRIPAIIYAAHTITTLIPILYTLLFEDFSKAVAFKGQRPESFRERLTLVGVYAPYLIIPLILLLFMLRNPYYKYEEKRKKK

[4] = molecular target: σ1 receptors; details: read-out: σ1 Ki; ref Lever et al., 2014a; cited from earlier work
[5] = molecular target: T1, σ1 receptors; details: ref Lever et al., 2014a; cited from earlier work
[6] = molecular target: T1, σ1 receptors; details: read-out: Kd for σ1 sites in mouse brain membranes; ref Lever et al., 2012; cited from earlier work
[7] = ref Lever et al., 2012, 2014a, 2015; cited from earlier work
[8] = molecular target: T1, σ1 receptors; type: in vivo, CD-1 mice; details: 2.5 μCi i.v., 60 min; non-specific defined by BD1063
[9] = molecular target: T1, σ1 receptors; type: in vivo, CD-1 mice; details: saline control, 60 min
[10] = tested on: striatal DAT; details: Swiss Webster strain; ref Desai and colleagues (2005); cited from earlier work
[11] = tested on: mice; details: cited from earlier work
[12] = ref Fowler et al., 2007; cited from earlier work
[13] = homologous saturation, 25 °C, 60 min, two-site model

Fc1ccc(C(OCCN2CCN(CCCc3ccccc3)CC2)c2ccc(F)cc2)cc1 [GBR12909, 1-{2-[bis-(4-fluorophenyl)methoxy]ethyl}-4-(3-phenylpropyl)piperazine]
inhibition at 10 µmol/kg [1]: 75%

CC(C(O)c1ccc(O)cc1)N1CCC(Cc2ccccc2)CC1 (stereo not drawn) [Ifenprodil, ifenprodil (+)-tartrate]
IC50 [2]: 35 ± 0.95 nM
Ki [2]: 22.7 ± 0.61 nM
Sigma1 nH ([2]; 3.0 nM [^3H](+)pentazocine, 37 °C, 180 min): 1.08 ± 0.06
Selectivity Ki Ratio σ2/σ1 ([2]; CD-1 mouse whole brain membranes): 0.1
IC50 [3]: 2.69 ± 0.36 nM
Ki [3]: 2.43 ± 0.32 nM
Sigma2 nH ([3]; 3.0 nM [^3H]DTG/500 nM (+)pentazocine, 25 °C, 60 min): 0.70 ± 0.07

CCCN1CCC=C(c2cc(-c3ccc(C)cc3)no2)C1 [PD144418]
Ki [4]: 0.19 nM
σ1 receptor occupancy threshold for significant behavioral effects [5]: 80%

CC(C)=CCN1CC[C@]2(C)c3cc(O)ccc3C[C@H]1[C@H]2C [[^3H](+)-Pentazocine]
Maximal site density (Bmax), σ1 receptors ([2]; saturation binding, 37 °C, 180 min): 538 ± 30 fmol/mg protein and 538 fmol/mg protein

Cc1ccccc1NC(=N)Nc1ccccc1C [[^3H]DTG]
Bmax, high affinity, low capacity site (σ2 receptor) [3, 13]: 711 ± 81 fmol/mg protein
Bmax, low affinity, high capacity site [3, 13]: 21307 ± 7059 fmol/mg protein

COc1ccc(CCN2CCN(C/C=C/I)CC2)cc1OC [[^125I]E-IA-DM-PE-PIPZE, [^125I]E-N-1-(3′-iodoallyl)-N′-4-(3″,4″-dimethoxyphenethyl)-piperazine]
Kd [6]: 3.79 nM

COc1ccc(CCN2CCN(C/C=C/[125I])CC2)cc1OC [[^125I]E-IA-DM-PE-PIPZE, [^125I]E-N-1-(3′-iodoallyl)-N′-4-(3″,4″-dimethoxyphenethyl)-piperazine]
Metabolic stability [7]: excellent metabolic stability
Selectivity for binding to σ1 over σ2 receptors ([2]; from Table II): 200 fold
Control specific binding to σ1 receptors, brain [8]: 83%
Control specific binding to σ1 receptors, heart [8]: 53%
Control specific binding to σ1 receptors, lung [8]: 66%
Control specific binding to σ1 receptors, spleen [8]: 71%
Specific Binding [^125I]E-IA-DM-PE-PIPZE, Control ([9]; Caudate-putamen): 1.96 ± 0.07 fmol/mg tissue
Specific Binding [^125I]E-IA-DM-PE-PIPZE, Control ([9]; Cortex, Cingulate): 2.69 ± 0.20 fmol/mg tissue
Specific Binding [^125I]E-IA-DM-PE-PIPZE, Control ([9]; Cortex, Entorhinal): 2.52 ± 0.09 fmol/mg tissue
Specific Binding [^125I]E-IA-DM-PE-PIPZE, Control ([9]; Cortex, Frontal): 2.99 ± 0.19 fmol/mg tissue
Specific Binding [^125I]E-IA-DM-PE-PIPZE, Control ([9]; Cortex, Parietal): 3.12 ± 0.14 fmol/mg tissue
Specific Binding [^125I]E-IA-DM-PE-PIPZE, Control ([9]; Cortex, Temporal): 2.93 ± 0.16 fmol/mg tissue
Specific Binding [^125I]E-IA-DM-PE-PIPZE, Control ([9]; Diencephalon, Thalamic nuclei): 2.94 ± 0.10 fmol/mg tissue
Specific Binding [^125I]E-IA-DM-PE-PIPZE, Control ([9]; Diencephalon, Thalamus): 2.57 ± 0.13 fmol/mg tissue
Specific Binding [^125I]E-IA-DM-PE-PIPZE, Control ([9]; Hippocampus, CA1 pyramidal): 2.25 ± 0.12 fmol/mg tissue
Specific Binding [^125I]E-IA-DM-PE-PIPZE, Control ([9]; Hippocampus, CA2 pyramidal): 2.87 ± 0.13 fmol/mg tissue
Specific Binding [^125I]E-IA-DM-PE-PIPZE, Control ([9]; Hippocampus, CA3 pyramidal): 3.34 ± 0.10 fmol/mg tissue
Specific Binding [^125I]E-IA-DM-PE-PIPZE, Control ([9]; Hippocampus, Dentate Gyrus): 3.27 ± 0.08 fmol/mg tissue
Specific Binding [^125I]E-IA-DM-PE-PIPZE, Control ([9]; Hippocampus, Nonpyramidal): 1.84 ± 0.08 fmol/mg tissue
Specific Binding [^125I]E-IA-DM-PE-PIPZE, Control ([9]; Mesencephalon, Inferior Colliculi): 3.50 ± 0.20 fmol/mg tissue
Specific Binding [^125I]E-IA-DM-PE-PIPZE, Control ([9]; Mesencephalon, Periaqueductal Gray): 4.07 ± 0.13 fmol/mg tissue
Specific Binding [^125I]E-IA-DM-PE-PIPZE, Control ([9]; Mesencephalon, Superior Colliculi): 3.50 ± 0.14 fmol/mg tissue
Specific Binding [^125I]E-IA-DM-PE-PIPZE, Control ([9]; Metencephalon, Cerebellum (whole)): 3.18 ± 0.08 fmol/mg tissue
Specific Binding [^125I]E-IA-DM-PE-PIPZE, Control ([9]; Metencephalon, Granular layer): 4.13 ± 0.20 fmol/mg tissue
Specific Binding [^125I]E-IA-DM-PE-PIPZE, Control ([9]; Metencephalon, Molecular layer): 2.38 ± 0.08 fmol/mg tissue
Specific Binding [^125I]E-IA-DM-PE-PIPZE, Control ([9]; White Matter, Corpus callosum): 1.99 ± 0.06 fmol/mg tissue

(−)-Cocaine hydrochloride
ED50 for displacement of striatal binding [10]: 38 µmol/kg
ED50 for maximum stimulatory effects on locomotor activity ([11]; CD-1 mice, 3 h period, ref Thomsen and Caine (2011)): 18.2 mg/kg
ED50 for maximum stimulatory effects on locomotor activity ([11]; CD-1 mice, first hour, ref Carroll et al. (2004)): 10 mg/kg
ED50 for maximum stimulatory effects on locomotor activity ([11]; Swiss Webster mice, 3 h period, ref Thomsen and Caine (2011)): 9.7 mg/kg
Log D7.4 [12]: 1.31
